From US9216178B2, “Dry blend formulation of tetrahydrobiopterin” (BioMarin Pharmaceutical Inc., priority 2011, dated 2015)
Counter-ions that a name gives are not always drawn.

Tests used:
physchem = type: physicochemical; conditions: water
Text: However, despite the commonality of wet granulation methods, it is not ideal for all blends. Specifically, BH4 dihydrochloride is moisture sensitive and will rapidly degrade in the presence of water. Furthermore, BH4 dihydrochloride is pH sensitive and commonly degrades in the presence of reducing sugars, flavoring agents, flavor enhancers, and aqueous solutions and thus wet blending of BH4 dihydrochloride with excipients can lead to degradation of the active ingredient. […] Accordingly, the dry blend method of producing a stable BH4 dihydrochloride powder sachet dosage is ideal.

[1] = Clinical evaluation of BH4 capsules: drug levels in cerebrospinal fluid; type: in vivo; conditions: doses up to 40 mg/kg/day as a single dose; expected
Description: The clinical evaluation comprises two clinical studies.
A first study evaluates the relative bioavailability of BH4 dihydrochloride administered as a capsule in fasted conditions and after a meal in healthy subjects. Ascending doses of BH4 dihydrochloride up to 40 mg/kg/day are evaluated and drug levels in cerebrospinal fluid (CSF) are measured. […] Measurement of BH4 levels in CSF is expected to be indicative of BH4 availability in brain tissues.

[2] = Stability of BH4 dihydrochloride dry blend powder / sachet formulations; type: physicochemical; conditions: Initial time point
Description: Stability under different storage conditions were assessed and the potency of the active BH4 dihydrochloride is presented.
Certain embodiments of the sachet dosage forms of the present disclosure are illustrated in Table 18, with a comparison of the stability of different BH4 or BH4-related compounds packaged in foil pouches.

[3] = room temperature, aqueous solutions; cited from earlier work
[4] = children treated for 4, 8, and 12 weeks; cited from earlier work
[5] = children, after 6 months of treatment; cited from earlier work

C[C@H](O)[C@H](O)[C@H]1CNc2nc(N)[nH]c(=O)c2N1 [BH4 dihydrochloride, (6R)-L-erythro-5,6,7,8-tetrahydrobiopterin dihydrochloride]
solubility (physchem): > 100 mg/mL | peak levels of BH4 in CSF [1]: higher peak levels

C[C@H](O)[C@H](O)[C@H]1CNc2[nH]c(N)nc(=O)c2N1.Cl.Cl [100 μg/mL reference API]
Degradation/impurity: BH2 (Dihydrobiopterin) [2]: 0.04 area % | Degradation/impurity: BH4 [2]: 0.05 area % | Degradation/impurity: R-Tetrahydrobiolumazine [2]: 0.05 area % | Degradation/impurity: S-BH4 [2]: 0.03 area % | Potency (%) [2]: 100.6% | Total Impurities (%) [2]: 0.17%

C[C@H](O)[C@H](O)[C@H]1CNc2nc(N)[nH]c(=O)c2N1 [BH4, (6R)-L-erythro-5,6,7,8-tetrahydrobiopterin]
shelf-life [3]: less than 8 hours | total scores on the Parental Satisfaction Survey (PSS) [4]: significant increases | social interaction scores [5]: significant improvement
